A value given as a limit tells only on which side of the number the result lay.

In one test the target is T1, SMARCA4-HiBiT (Homo sapiens, UniProt P51532).
T1 construct: SMARCA4-HiBiT knock-in Hela monoclonal cell (CS3023226); host or cells: HeLa monoclonal knock-in line (CRISPR HiBiT knock-in at the endogenous locus, heterozygous)
Kind of test: SMARCA4 HiBiT degradation assay in HeLa cells. Type of test: cell-based. To be noted: 18 hours incubation; for DC50: read-out: HeLa-HiBit-SM4 DC50; for Dmax: HeLa, read-out: HeLa-HiBit-SM4 Dmax (%). The method in brief: (§1)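 HeLa monoclonal lines with heterozygous HiBiT knock-in were seeded at 2500 cells/well in EMEM with 10% FBS and treated with compound for 18 h at 37 °C. Remaining tagged protein was measured by Nano-Glo HiBiT lytic luminescence after 30–60 min at RT, and values came from curve fitting.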
(In general: With HiBiT, luminescence reflects the tagged protein that the partner subunit can reach.)

In a further test the target is T2, SMARCA2-HiBiT (Homo sapiens, UniProt P51531).
T2 construct: SMARCA2-HiBiT knock-in Hela monoclonal cell (CS302366); host or cells: HeLa monoclonal knock-in line (CRISPR HiBiT knock-in at the endogenous locus, heterozygous)
Kind of test: SMARCA2 HiBiT degradation assay in HeLa cells. Type of test: cell-based. To be noted: 18 hours incubation; for DC50: read-out: HeLa_HiBit-SM2 DC50; for Dmax: HeLa, read-out: HeLa-HiBit-SM2 Dmax (%). In outline: as §1

T1 sequence (P51532 whole entry): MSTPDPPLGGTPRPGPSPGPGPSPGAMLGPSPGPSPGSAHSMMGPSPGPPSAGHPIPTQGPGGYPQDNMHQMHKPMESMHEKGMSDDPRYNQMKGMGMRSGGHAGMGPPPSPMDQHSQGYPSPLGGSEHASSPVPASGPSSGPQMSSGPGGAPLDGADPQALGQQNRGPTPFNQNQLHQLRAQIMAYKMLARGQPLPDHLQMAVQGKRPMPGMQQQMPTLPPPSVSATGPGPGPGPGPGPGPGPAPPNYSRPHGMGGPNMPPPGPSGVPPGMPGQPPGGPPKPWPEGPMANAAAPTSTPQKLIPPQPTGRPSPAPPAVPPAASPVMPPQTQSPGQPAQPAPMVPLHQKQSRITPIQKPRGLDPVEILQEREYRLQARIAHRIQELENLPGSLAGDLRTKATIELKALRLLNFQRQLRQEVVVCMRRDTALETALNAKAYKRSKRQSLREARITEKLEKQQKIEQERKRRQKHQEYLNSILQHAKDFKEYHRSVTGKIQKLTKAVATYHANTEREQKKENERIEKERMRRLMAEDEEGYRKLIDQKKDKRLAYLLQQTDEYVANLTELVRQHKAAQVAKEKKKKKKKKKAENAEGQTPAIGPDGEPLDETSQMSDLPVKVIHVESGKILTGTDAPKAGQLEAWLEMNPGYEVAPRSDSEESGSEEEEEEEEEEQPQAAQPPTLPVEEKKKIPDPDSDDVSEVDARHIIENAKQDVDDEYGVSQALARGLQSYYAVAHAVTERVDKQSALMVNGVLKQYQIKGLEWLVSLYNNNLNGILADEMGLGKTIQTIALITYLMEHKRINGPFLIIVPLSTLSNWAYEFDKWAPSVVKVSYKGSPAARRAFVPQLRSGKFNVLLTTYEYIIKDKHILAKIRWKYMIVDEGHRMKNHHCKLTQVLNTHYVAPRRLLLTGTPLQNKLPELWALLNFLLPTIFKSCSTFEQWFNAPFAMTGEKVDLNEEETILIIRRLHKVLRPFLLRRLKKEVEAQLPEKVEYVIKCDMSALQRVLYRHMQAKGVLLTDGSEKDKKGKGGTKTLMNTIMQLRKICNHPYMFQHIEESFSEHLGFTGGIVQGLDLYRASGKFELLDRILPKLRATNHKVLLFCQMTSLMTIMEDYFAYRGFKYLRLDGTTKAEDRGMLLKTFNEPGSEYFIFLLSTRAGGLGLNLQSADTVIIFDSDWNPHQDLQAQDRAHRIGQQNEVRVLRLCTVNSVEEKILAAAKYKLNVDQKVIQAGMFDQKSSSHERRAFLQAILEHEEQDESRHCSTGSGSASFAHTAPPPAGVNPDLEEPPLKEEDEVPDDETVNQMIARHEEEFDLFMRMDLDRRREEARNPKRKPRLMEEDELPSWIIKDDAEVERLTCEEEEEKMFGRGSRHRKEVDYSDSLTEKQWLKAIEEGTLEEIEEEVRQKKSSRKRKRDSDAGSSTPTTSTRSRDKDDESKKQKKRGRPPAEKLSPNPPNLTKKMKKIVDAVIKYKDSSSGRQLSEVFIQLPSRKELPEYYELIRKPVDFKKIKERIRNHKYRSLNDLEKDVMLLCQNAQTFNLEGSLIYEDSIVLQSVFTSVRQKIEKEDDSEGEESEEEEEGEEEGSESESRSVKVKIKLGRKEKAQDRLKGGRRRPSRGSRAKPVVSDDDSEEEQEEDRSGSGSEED
T2 sequence (P51531 whole entry): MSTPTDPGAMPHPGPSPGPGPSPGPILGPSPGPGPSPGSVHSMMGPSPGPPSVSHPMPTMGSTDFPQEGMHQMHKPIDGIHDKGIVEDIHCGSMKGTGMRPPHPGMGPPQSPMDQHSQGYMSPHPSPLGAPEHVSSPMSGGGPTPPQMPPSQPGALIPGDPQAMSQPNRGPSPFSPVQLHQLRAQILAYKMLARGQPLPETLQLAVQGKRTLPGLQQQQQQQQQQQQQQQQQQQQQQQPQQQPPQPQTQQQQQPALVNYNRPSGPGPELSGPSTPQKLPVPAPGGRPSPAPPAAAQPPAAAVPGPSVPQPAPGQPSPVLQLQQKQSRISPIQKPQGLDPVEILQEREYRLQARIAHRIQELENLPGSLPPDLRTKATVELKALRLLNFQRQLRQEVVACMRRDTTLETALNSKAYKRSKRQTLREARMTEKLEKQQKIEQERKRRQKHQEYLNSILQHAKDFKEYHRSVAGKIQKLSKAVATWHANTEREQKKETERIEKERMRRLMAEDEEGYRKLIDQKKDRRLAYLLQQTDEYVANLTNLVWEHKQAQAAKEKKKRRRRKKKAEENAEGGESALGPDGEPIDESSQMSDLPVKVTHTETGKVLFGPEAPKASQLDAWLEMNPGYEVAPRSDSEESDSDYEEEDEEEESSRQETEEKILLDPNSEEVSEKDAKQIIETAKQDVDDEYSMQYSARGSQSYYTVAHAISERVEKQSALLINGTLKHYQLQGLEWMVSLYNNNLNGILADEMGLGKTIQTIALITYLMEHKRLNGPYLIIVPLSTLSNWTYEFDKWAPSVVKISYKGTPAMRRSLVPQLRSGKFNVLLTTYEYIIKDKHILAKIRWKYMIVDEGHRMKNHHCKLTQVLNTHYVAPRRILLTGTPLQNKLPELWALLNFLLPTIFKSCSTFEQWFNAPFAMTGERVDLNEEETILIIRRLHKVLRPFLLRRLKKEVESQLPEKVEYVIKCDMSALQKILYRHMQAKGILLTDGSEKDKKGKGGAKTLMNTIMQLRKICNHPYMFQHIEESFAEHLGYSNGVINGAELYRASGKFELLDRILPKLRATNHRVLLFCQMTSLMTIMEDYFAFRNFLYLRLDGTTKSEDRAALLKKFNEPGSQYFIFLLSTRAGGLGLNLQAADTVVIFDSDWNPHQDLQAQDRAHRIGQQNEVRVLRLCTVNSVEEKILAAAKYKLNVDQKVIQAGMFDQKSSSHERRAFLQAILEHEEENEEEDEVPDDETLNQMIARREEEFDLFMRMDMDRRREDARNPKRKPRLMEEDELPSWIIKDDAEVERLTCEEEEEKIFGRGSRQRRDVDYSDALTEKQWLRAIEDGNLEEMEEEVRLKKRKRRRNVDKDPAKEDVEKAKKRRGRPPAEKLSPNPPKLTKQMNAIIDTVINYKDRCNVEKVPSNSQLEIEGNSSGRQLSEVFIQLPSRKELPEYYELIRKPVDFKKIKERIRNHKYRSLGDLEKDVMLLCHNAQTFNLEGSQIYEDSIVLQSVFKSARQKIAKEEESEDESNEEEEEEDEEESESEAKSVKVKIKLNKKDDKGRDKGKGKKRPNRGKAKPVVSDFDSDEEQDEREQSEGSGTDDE

Broadly, the DC50 is the concentration giving 50% degradation. Usually Dmax stands for the largest share of the target that was removed. On to `O=C1CCC(N2C(=O)c3ccc(N4C[C@H]5CC(N6CCC(CN7CCN8c9cc(-c%10ccccc%10O)nnc9NC[C@H]8C7)CC6)[C@H]5C4)cc3C2=O)C(=O)N1` (stereo partly drawn) [Example 190, 2-(2,6-dioxopiperidin-3-yl)-5-[(1S,5R)-6-[4-[[(10S)-4-(2-hydroxyphenyl)-1,5,6,8,12-pentazatricyclo[8.4.0.02,7]tetradeca-2(7),3,5-trien-12-yl]methyl]piperidin-1-yl]-3-azabicyclo[3.2.0]heptan-3-yl]isoindole-1,3-dione], for which the DC50 on SMARCA4-HiBiT and at SMARCA2-HiBiT was below 10 nM each time. The Dmax on SMARCA4-HiBiT and at SMARCA2-HiBiT was 75 to 85% in each case.

On to `O=C1CCC(N2C(=O)c3ccc(N4CC(CN5CCC(CN6CCN7c8cc(-c9ccccc9O)nnc8NC[C@H]7C6)CC5)C(F)(F)C4)cc3C2=O)C(=O)N1` (stereo partly drawn) [Example 191, 5-[3,3-difluoro-4-[[4-[[(10S)-4-(2-hydroxyphenyl)-1,5,6,8,12-pentazatricyclo[8.4.0.02,7]tetradeca-2(7),3,5-trien-12-yl]methyl]piperidin-1-yl]methyl]pyrrolidin-1-yl]-2-(2,6-dioxopiperidin-3-yl)isoindole-1,3-dione], for which, at SMARCA4-HiBiT, the DC50 was 10 to 100 nM and the Dmax is 75 to 85%. Moreover, at SMARCA2-HiBiT, the 50% degradation concentration (DC50) is below 10 nM and the Dmax fell in the range of 50 to 75%.

With `O=C1CCC(N2C(=O)c3ccc(N4CC[C@H](CN5C[C@@H]6[C@H](C5)[C@H]6CN5CCN6c7cc(-c8ccccc8O)nnc7NC[C@H]6C5)[C@@H](F)C4)cc3C2=O)C(=O)N1` (stereo partly drawn) [Example 193, 2-(2,6-dioxopiperidin-3-yl)-5-[(3R,4R)-3-fluoro-4-[[(1S,5R)-6-[[(10S)-4-(2-hydroxyphenyl)-1,5,6,8,12-pentazatricyclo[8.4.0.02,7]tetradeca-2(7),3,5-trien-12-yl]methyl]-3-azabicyclo [3.1.0]hexan-3-yl]methyl]piperidin-1-yl]isoindole-1,3-dione], at SMARCA4-HiBiT, the “HeLa-HiBit-SM4 Dmax (%)” value is listed as “C (C=50%<Dmax<=75%)” and the DC50 lay in the range of 10 to 100 nM. Further, at SMARCA2-HiBiT, the DC50 was below 10 nM and the Dmax was 75 to 85%.

Regarding `O=C1CCC(N2C(=O)c3ccc(N4CC[C@H](CN5C[C@@H]6[C@H](C5)[C@H]6CN5CCN6c7cc(-c8ccccc8O)nnc7NC[C@H]6C5)[C@@H](F)C4)cc3C2=O)C(=O)N1` (stereo partly drawn) [Example 194, 2-(2,6-dioxopiperidin-3-yl)-5-[(3R,4R)-3-fluoro-4-[[(1S,5R)-6-[[(10S)-4-(2-hydroxyphenyl)-1,5,6,8,12-pentazatricyclo[8.4.0.02,7]tetradeca-2(7),3,5-trien-12-yl]methyl]-3-azabicyclo[3.1.0]hexan-3-yl]methyl]piperidin-1-yl]isoindole-1,3-dione], at SMARCA4-HiBiT, the “HeLa-HiBit-SM4 Dmax (%)” value is reported as “B (B=75%<Dmax<=85%)” and the DC50 is below 10 nM. In addition, at SMARCA2-HiBiT, the “HeLa-HiBit-SM2 Dmax (%)” value was “A (A=Dmax>85%)” and the DC50 was below 10 nM.

For the molecule `O=C1CCC(N2C(=O)c3ccc(N4CCC(CN5CCN(C(=O)N6CCN7c8cc(-c9ccccc9O)nnc8NC[C@H]7C6)CC5)C(F)(F)C4)cc3C2=O)C(=O)N1` (stereo partly drawn) [Example 195, 5-[3,3-difluoro-4-[[4-[(10S)-4-(2-hydroxyphenyl)-1,5,6,8,12-pentazatricyclo[8.4.0.02,7]tetradeca-2(7),3,5-trien-12-carbonyl]piperazin-1-yl]methyl]piperidin-1-yl]-2-(2,6-dioxopiperidin-3-yl) isoindole-1,3-dione], the results for the DC50 at SMARCA4-HiBiT and on SMARCA2-HiBiT were 10 to 100 nM and below 10 nM, respectively. Moreover, the Dmax at SMARCA4-HiBiT and on SMARCA2-HiBiT was 50 to 75% in each case.

As to `O=C1CCC(N2C(=O)c3ccc(N4CCC(CN5CCC(C(=O)N6CCN7c8cc(-c9ccccc9O)nnc8NC[C@H]7C6)CC5)C(F)(F)C4)cc3C2=O)C(=O)N1` (stereo partly drawn) [Example 196, 5-[3,3-difluoro-4-[[4-[(10S)-4-(2-hydroxyphenyl)-1,5,6,8,12-pentazatricyclo[8.4.0.02,7]tetradeca-2(7),3,5-trien-12-carbonyl]piperidin-1-yl]methyl]piperidin-1-yl]-2-(2,6-dioxopiperidin-3-yl) isoindole-1,3-dione], at SMARCA4-HiBiT, the DC50 was 10 to 100 nM and the Dmax fell in the range of 50 to 75%. Besides, on SMARCA2-HiBiT, the half-maximal degradation concentration (DC50) was below 10 nM and the Dmax fell in the range of 75 to 85%.

Take `CC1CN(c2ccc3c(c2)C(=O)N(C2CCC(=O)NC2=O)C3=O)CCC1CN1C[C@@H]2[C@H](C1)[C@H]2CN1CCN2c3cc(-c4ccccc4O)nnc3NC[C@H]2C1` (stereo partly drawn) [Example 197, 2-(2,6-dioxopiperidin-3-yl)-5-(4-(((1R,5S,6r)-6-(((S)-2-(2-hydroxyphenyl)-5,6,6a,7,9,10-hexahydro-8H-pyrazino[1′,2′:4,5]pyrazino[2,3-c]pyridazin-8-yl)methyl)-3-azabicyclo[3.1.0]hexan-3-yl)methyl)-3-methylpiperidin-1-yl)isoindoline-1,3-dione]: at SMARCA4-HiBiT, the “HeLa-HiBit-SM4 Dmax (%)” value is on record as “B (B=75%<Dmax<=85%)” and the DC50 is below 10 nM. For the same molecule, on SMARCA2-HiBiT, the DC50 was below 10 nM and the Dmax was above 85%.

Take `CC1CN(c2ccc3c(c2)C(=O)N(C2CCC(=O)NC2=O)C3=O)CCC1CN1C[C@@H]2[C@H](C1)[C@H]2CN1CCN2c3cc(-c4ccccc4O)nnc3NC[C@H]2C1` (stereo partly drawn) [Example 198, 2-(2,6-dioxopiperidin-3-yl)-5-(4-(((1R,5S,6r)-6-(((S)-2-(2-hydroxyphenyl)-5,6,6a,7,9,10-hexahydro-8H-pyrazino[1′,2′:4,5]pyrazino[2,3-c]pyridazin-8-yl)methyl)-3-azabicyclo[3.1.0]hexan-3-yl)methyl)-3-methylpiperidin-1-yl)isoindoline-1,3-dione]: on SMARCA4-HiBiT, the “HeLa-HiBit-SM4 Dmax (%)” value is on record as “C (C=50%<Dmax<=75%)” and the DC50 was below 10 nM. For the same molecule, on SMARCA2-HiBiT, the “HeLa-HiBit-SM2 Dmax (%)” value was “A (A=Dmax>85%)” and the DC50 is below 10 nM.

As to `O=C1CCC(N2C(=O)c3ccc(N4CC[C@@H](CN5C[C@@H]6[C@H](C5)[C@H]6CN5CCN6c7cc(-c8ccccc8O)nnc7NC[C@H]6C5)[C@H](F)C4)cc3C2=O)C(=O)N1` (stereo partly drawn) [Example 200, 2-(2,6-dioxopiperidin-3-yl)-5-[(3S,4S)-3-fluoro-4-[[(1S,5R)-6-[[(10S)-4-(2-hydroxyphenyl)-1,5,6,8,12-pentazatricyclo [8.4.0.02,7]tetradeca-2(7),3,5-trien-12-yl]methyl]-3-azabicyclo[3.1.0]hexan-3-yl]methyl]piperidin-1-yl]isoindole-1,3-dione], on SMARCA4-HiBiT, the “HeLa-HiBit-SM4 Dmax (%)” value is reported as “C (C=50%<Dmax<=75%)” and the DC50 was below 10 nM. Further, at SMARCA2-HiBiT, the DC50 is below 10 nM and the Dmax lay in the range of 75 to 85%.

As to `O=C1CCC(N2C(=O)c3ccc(N4CC[C@@H](CN5C[C@@H]6[C@H](C5)[C@H]6CN5CCN6c7cc(-c8ccccc8O)nnc7NC[C@H]6C5)[C@H](F)C4)cc3C2=O)C(=O)N1` (stereo partly drawn) [Example 201, 2-(2,6-dioxopiperidin-3-yl)-5-[(3S,4S)-3-fluoro-4-[[(1S,5R)-6-[[(10S)-4-(2-hydroxyphenyl)-1,5,6,8,12-pentazatricyclo [8.4.0.02,7]tetradeca-2(7),3,5-trien-12-yl]methyl]-3-azabicyclo[3.1.0]hexan-3-yl]methyl]piperidin-1-yl]isoindole-1,3-dione], at SMARCA4-HiBiT, the “HeLa-HiBit-SM4 Dmax (%)” value is “A (A=Dmax>85%)” and the DC50 is below 10 nM. Also, on SMARCA2-HiBiT, the “HeLa-HiBit-SM2 Dmax (%)” value was “A (A=Dmax>85%)” and the DC50 is below 10 nM.

Turning to `O=C1CCC(N2C(=O)c3ccc(N4CC[C@H](CN5CCC(C(=O)N6CCN7c8cc(-c9ccccc9O)nnc8NC[C@H]7C6)CC5)[C@@H](F)C4)cc3C2=O)C(=O)N1` (stereo partly drawn) [Example 202, 2-(2,6-dioxopiperidin-3-yl)-5-[(3R,4R)-3-fluoro-4-[[4-[(10S)-4-(2-hydroxyphenyl)-1,5,6,8,12-pentazatricyclo [8.4.0.02,7]tetradeca-2(7),3,5-trien-12-carbonyl]piperidin-1-yl]methyl]piperidin-1-yl]isoindole-1,3-dione], at SMARCA4-HiBiT, the DC50 lay in the range of 10 to 100 nM and the Dmax was in the range of 75 to 85%. Moreover, on SMARCA2-HiBiT, the DC50 was below 10 nM and the Dmax was above 85%.

Consider `O=C1CCC(N2Cc3ccc(N4CC[C@H](CN5C[C@@H]6[C@H](C5)[C@H]6CN5CCN6c7cc(-c8ccccc8O)nnc7NC[C@H]6C5)[C@@H](F)C4)cc3C2=O)C(=O)N1` (stereo partly drawn) [Example 203, 3-(6-((3R,4R)-3-fluoro-4-(((1R,5S,6R)-6-(((S)-2-(2-hydroxyphenyl)-5,6,6a,7,9,10-hexahydro-8H-pyrazino[1′,2′:4,5]pyrazino[2,3-c]pyridazin-8-yl)methyl)-3-azabicyclo[3.1.0]hexan-3-yl)methyl)piperidin-1-yl)-1-oxoisoindolin-2-yl)piperidine-2,6-dione], for which the DC50 on SMARCA4-HiBiT and on SMARCA2-HiBiT was below 10 nM throughout. Also, the Dmax at SMARCA4-HiBiT and on SMARCA2-HiBiT was above 85% throughout.

Take `C[C@H]1CN2c3cc(-c4ccccc4O)nnc3NC[C@H]2CN1C[C@H]1[C@@H]2CN(C[C@H]3CCN(c4ccc5c(c4)C(=O)N(C4CCC(=O)NC4=O)C5)C[C@@H]3F)C[C@@H]21` (stereo partly drawn) [Example 204, 3-[5-[(3R,4R)-3-fluoro-4-[[(1S,5R)-6-[[(10S,13S)-4-(2-hydroxyphenyl)-13-methyl-1,5,6,8,12-pentazatricyclo[8.4.0.02,7]tetradeca-2,4,6-trien-12-yl]methyl]-3-azabicyclo[3.1.0]hexan-3-yl]methyl]piperidin-1-yl]-3-oxo-1H-isoindol-2-yl]piperidine-2,6-dione]: on SMARCA4-HiBiT, the DC50 is 10 to 100 nM and the Dmax is 75 to 85%. Besides, at SMARCA2-HiBiT, the DC50 was below 10 nM and the Dmax lay in the range of 75 to 85%.

The values above are taken from patent publication US12448389B2, “BRM targeting compounds and associated methods of use” (Prelude Therapeutics Incorporated, priority 2020, dated 2025).
